# Activity calls are given as the source filed them. No cut-off for these calls is given here.
# Tests used:
# [1] = tested on: Enterococcus faecium; test: Antibacterial activity against Enterococcus faecium; format: functional, organism-based
# [2] = tested on: Staphylococcus aureus; test: Antibacterial activity against Staphylococcus aureus ATCC 29213; format: functional, organism-based
# [3] = tested on: Escherichia coli; test: Antibacterial activity against Escherichia coli; format: functional, organism-based
# [4] = tested on: A2780S; test: Cytotoxicity against human A2780S cells at 10 ug/ml; format: functional, cell-based
# [5] = tested on: Mycobacterium tuberculosis; test: Antitubercular activity against Mycobacterium tuberculosis H37Rv; format: functional, organism-based
# [6] = tested on: Acinetobacter baumannii; test: Antibacterial activity against Acinetobacter baumannii; format: functional, organism-based
# [7] = tested on: A2780S; test: Cytotoxicity against human A2780S cells at 10 uM; format: functional, cell-based
# [8] = tested on: L5178Y; test: Cytotoxicity against mouse L5178Y cells at 10 ug/ml; format: functional, cell-based
# [9] = tested on: L5178Y; test: Cytotoxicity against mouse L5178Y cells at 100 uM; format: functional, cell-based
# [10] = tested on: Pseudomonas aeruginosa; test: Antibacterial activity against Pseudomonas aeruginosa; format: functional, organism-based
# [11] = tested on: L5178Y; test: Cytotoxicity against mouse L5178Y cells at 10 uM; format: functional, cell-based
# [12] = tested on: A2780S; test: Cytotoxicity against human A2780S cells at 100 uM; format: functional, cell-based
# [13] = tested on: Klebsiella aerogenes; test: Antibacterial activity against Enterobacter aerogenes; format: functional, organism-based
# [14] = tested on: Klebsiella pneumoniae; test: Antibacterial activity against Klebsiella pneumoniae; format: functional, organism-based
# [15] = Stability of the compound by HPLC analysis; format: physicochemical
Structure (SMILES),Activity [1],Activity [2],Activity [3],Activity [4],Activity [5],Activity [6],Activity [7],Activity [8],Activity [9],Activity [10],Activity [11],Activity [12],Activity [13],Activity [14],Stability [15]
COC(=O)c1cc(O)cc(OC)c1C(=O)c1c(O)cc(C)cc1O,inactive,inactive,inactive,inactive,inactive,inactive,inactive,inactive,inactive,inactive,inactive,inactive,inactive,inactive,
COc1cc(C(=O)O)c2c(=O)c3c(O)cc(C)cc3oc2c1,inactive,inactive,inactive,inactive,inactive,inactive,inactive,inactive,inactive,inactive,inactive,inactive,inactive,inactive,
COc1cc(O)cc2c1C(=O)c1c(O)cc(C)cc1C2=O,inactive,inactive,inactive,inactive,inactive,inactive,inactive,inactive,inactive,inactive,inactive,inactive,inactive,inactive,
COc1cc(OC)c2c(c1)C(C1c3cc(O)cc(O)c3C(=O)c3c1cc(C)c(C(=O)OC[C@@H](O)CO)c3O)c1cc(C)cc(O)c1C2=O (stereo partly specified),,,,,,,,,,,,,,,Unstable
COC(=O)c1cc(O)cc(O)c1C(=O)c1c(O)cc(C)cc1O,inactive,inactive,inactive,inactive,inactive,inactive,inactive,inactive,inactive,inactive,inactive,inactive,inactive,inactive,
COc1cc(O)c2c(c1)[C@@H]([C@H]1c3cc(O)cc(O)c3C(=O)c3c1cc(C)c(C(=O)OC[C@@H](O)CO)c3O)c1cc(C)cc(O)c1C2=O,,,,,,,,,,,,,,,Unstable
Cc1cc(O)c2c(c1)C(=O)c1cc(O)cc(O)c1C2=O,inactive,inactive,inactive,inactive,inactive,inactive,inactive,inactive,inactive,inactive,inactive,inactive,inactive,inactive,
COC(=O)c1cc(C)c(C(=O)OC[C@@H](O)CO)c2oc3cc(O)cc(O)c3c(=O)c12,,,,,inactive,,,inactive,inactive,,inactive,,,,
COc1cc(OC)c2c(c1)C(C1c3cc(C)cc(O)c3C(=O)c3c(OC)cc(OC)cc31)c1cc(C)cc(O)c1C2=O (stereo unspecified),,,,,,,,,,,,,,,Unstable
Cc1cc2c(c(O)c1C(=O)OC[C@@H](O)CO)C(=O)c1c(O)cc(O)cc1C2=O,inactive,inactive,inactive,inactive,inactive,inactive,inactive,inactive,inactive,inactive,inactive,inactive,inactive,inactive,
Cc1cc2cc(O)cc(O)c2c2oc(=O)cc(O)c12,inactive,inactive,inactive,inactive,inactive,inactive,inactive,inactive,inactive,inactive,inactive,inactive,inactive,inactive,
Cc1cc(O)cc(O)c1-c1cc(=O)c2c(O)cc(O)cc2o1,inactive,inactive,inactive,inactive,inactive,inactive,inactive,inactive,inactive,inactive,inactive,inactive,inactive,inactive,
COC(=O)c1cc(C)c(C(=O)OC[C@@H](O)CO)c(OC)c1C(=O)c1c(C)cc(O)cc1O,,,,,inactive,,,inactive,inactive,,inactive,,,,
COc1cc(OC)c2c(c1)[C@H]([C@H]1c3cc(C)cc(O)c3C(=O)c3c(OC)cc(O)cc31)c1cc(C)cc(O)c1C2=O,,,,,,,,,,,,,,,Unstable
COc1cc(OC)c2c(c1)[C@@H]([C@@H]1c3cc(C)cc(O)c3C(=O)c3c(OC)cc(O)cc31)c1cc(C)cc(O)c1C2=O,,,,,,,,,,,,,,,Unstable
COc1cc(O)c2c(c1)[C@@H]([C@@H]1c3cc(O)cc(O)c3C(=O)c3c1cc(C)c(C(=O)OC[C@@H](O)CO)c3O)c1cc(C)cc(O)c1C2=O,,,,,,,,,,,,,,,Unstable
Cc1cc(=O)c2c(C)cc3cc(O)cc(O)c3c2o1,inactive,inactive,inactive,inactive,inactive,inactive,inactive,inactive,inactive,inactive,inactive,inactive,inactive,inactive,
COc1cc(O)c2c(c1)C(C1c3cc(C)cc(O)c3C(=O)c3c(O)cc(OC)cc31)c1cc(C)cc(O)c1C2=O (stereo unspecified),,,,,,,,,,,,,,,Unstable
COc1cc(OC)c2c(c1)C(=O)c1cc(C)cc(O)c1C2=O,,,,inactive,inactive,,inactive,inactive,inactive,,inactive,inactive,,,
Cc1cc(O)c2c(=O)c3c(C(=O)O)cc(O)cc3oc2c1,inactive,inactive,inactive,inactive,inactive,inactive,inactive,inactive,inactive,inactive,inactive,inactive,inactive,inactive,
COC(=O)c1cc(OC)cc(OC)c1C(=O)c1c(O)cc(C)cc1O,inactive,inactive,inactive,inactive,inactive,inactive,inactive,inactive,inactive,inactive,inactive,inactive,inactive,inactive,
